Measured values from patent publication US8008505B2, “Indazole or 4,5,6,7-tetrahydro-indazole derivatives” (Hoffmann-La Roche Inc., priority 2008, dated 2011).

The compounds below were run against T1, FXR ligand binding domain (Homo sapiens, UniProt Q96RI1) (assay: Radioligand binding assay (radioligand displacement, scintillation proximity)). Details: GST-FXR LBD fusion protein on SPA beads, radioligand 2,N-dicyclohexyl-2-[2-(2,4 dimethoxy-phenyl)-benzoimidazol-1-yl]-acetamide, RT 30 minutes.
T1 sequence (Q96RI1 1-486): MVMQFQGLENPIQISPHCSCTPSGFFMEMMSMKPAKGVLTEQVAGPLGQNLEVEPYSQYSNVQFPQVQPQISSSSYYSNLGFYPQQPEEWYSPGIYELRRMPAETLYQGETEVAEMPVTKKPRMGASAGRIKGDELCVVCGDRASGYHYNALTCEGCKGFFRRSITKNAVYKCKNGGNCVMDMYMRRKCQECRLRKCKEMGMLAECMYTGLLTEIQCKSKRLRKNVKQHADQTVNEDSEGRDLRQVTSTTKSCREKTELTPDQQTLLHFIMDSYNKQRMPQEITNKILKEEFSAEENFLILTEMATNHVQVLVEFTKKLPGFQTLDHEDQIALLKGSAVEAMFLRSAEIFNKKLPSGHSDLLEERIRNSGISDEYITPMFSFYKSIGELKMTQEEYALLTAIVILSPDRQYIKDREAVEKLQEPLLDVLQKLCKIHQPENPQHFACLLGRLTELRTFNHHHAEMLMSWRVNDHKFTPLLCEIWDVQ
Procedure: The following tests were carried out in order to determine the activity of the compounds of formula I. Background information on the binding assay can be found in: Nichols J S et al. “Development of a scintillation proximity assay for peroxisome proliferator-activated receptor gamma ligand binding domain”, (1998) Anal. Biochem. 257: 112-119.
Bacterial and mammalian expression vectors were constructed to produce glutathione-s-transferase (GST) and Gal4 DNA binding domain (GAL) proteins fused to the ligand binding domain (LBD) of human FXR (aa 193-473). To accomplish this, the portions of the sequences encoding the FXR LBD were amplified by polymerase chain reaction (PCR) from a full-length clone by PCR and then subcloned into the plasmid vectors. The final clone was verified by DNA sequence analysis.
The induction, expression, and subsequent purification of GST-LBD fusion protein was performed in E. coli strain BL21(pLysS) cells by standard methods (Current Protocols in Molecular Biology, Wiley Press, ed. Ausubel et al).
Radioligand Binding Assay
Binding of test substances to the FXR ligand binding domain was assessed in a radioligand displacement assay. The assay was performed in a buffer consisting of 50 mM Hepes, pH 7.4, 10 mM NaCl, 5 mM MgCl2. For each reaction well in a 96-well plate, 40 nM of GST-FXR LBD fusion protein was bound to 10 μg glutathione ytrium silicate SPA beads (Pharmacia Amersham) in a final volume of 50 μl by shaking. A radioligand (eg. 40 nM) of 2,N-dicyclohexyl-2-[2-(2,4 dimethoxy-phenyl)-benzoimidazol-1-yl]-acetamide) was added, and the reaction incubated at RT for 30 minutes in the presence of test compounds followed by scintillation proximity counting. All binding assays were performed in 96-well plates and the amount of bound ligand was measured on a Packard TopCount using OptiPlates (Packard). Dose response curves were performed within a range of concentration from 6×10^−9 M to 2.5×10^−5 M.
Work on `O=C(Nc1ccc(F)cc1F)C(c1c2c(nn1-c1ccc(Cl)cc1)CCCC2)C1CCCCC1` (racemic) [Example 14, [rac]-2-[2-(4-Chloro-phenyl)-4,5,6,7-tetrahydro-2H-indazol-3-yl]-2-cyclohexyl-N-(2,4-difluoro-phenyl)-acetamide] yielded an IC50 of 2830 nM.
Compound `O=C(Nc1ccc(OC2(C(=O)O)CC2)cc1F)C(c1c2c(nn1-c1ccc(Cl)cc1)CCCC2)C1CCCCC1` (racemic) [Example 16, [rac]-1-(4-{2-[2-(4-Chloro-phenyl)-4,5,6,7-tetrahydro-2H-indazol-3-yl]-2-cyclohexyl-acetylamino}-3-fluoro-phenoxy)-cyclopropanecarboxylic acid] has an IC50 of 223 nM.
`COC(=O)c1ccc(COC(c2c3ccccc3nn2-c2ccc(Cl)cc2)C2CCCCC2)cc1` (racemic) [Example 17] gave an IC50 of 7540 nM.
Work on `O=C(O)c1ccc(COC(c2c3ccccc3nn2-c2ccc(Cl)cc2)C2CCCCC2)cc1` (racemic) [Example 18] yielded an IC50 of 360 nM.
`O=C(O)c1ccc(NC(=O)C(c2c3c(nn2-c2ccc(Cl)cc2)CCCC3)C2CCCCC2)c(C(F)(F)F)c1` (racemic) [Example 20, [rac]-4-{2-[2-(4-Chloro-phenyl)-4,5,6,7-tetrahydro-2H-indazol-3-yl]-2-cyclohexyl-acetylamino}-3-trifluoromethyl-benzoic acid] showed an IC50 of 330 nM.
In the case of `O=C(NC1CCCCC1)C(c1c2cc(F)c(F)cc2nn1-c1ccc(Cl)cc1)C1CCCCC1` (racemic) [Example 24, [rac]-2-[2-(4-Chloro-phenyl)-5,6-difluoro-2H-indazol-3-yl]-2,N-dicyclohexyl-acetamide], the IC50 is reported as 680 nM.
With `CC(C)(Oc1ccc(NC(=O)C(c2c3cc(F)c(F)cc3nn2-c2ccc(Cl)cc2)C2CCCCC2)c(F)c1)C(=O)O` (racemic) [Example 26, [rac]-2-(4-{2-[2-(4-Chloro-phenyl)-5,6-difluoro-2H-indazol-3-yl]-2-cyclohexyl-acetylamino}-3-fluoro-phenoxy)-2-methyl-propionic acid] the IC50 was 570 nM.
Compound `O=C(O)c1ccc(COC(c2c3cc(F)c(F)cc3nn2-c2ccc(Cl)cc2)C2CCCCC2)cc1` (racemic) [Example 27, [rac]-4-{[2-(4-Chloro-phenyl)-5,6-difluoro-2H-indazol-3-yl]-cyclohexyl-methoxymethyl}-benzoic acid] has an IC50 of 245 nM.
For `O=C(O)c1ccc(COC(c2c3c(nn2-c2ccc(Cl)cc2)CCCC3)C2CCCCC2)cc1` (racemic) [Example 28, [rac]-4-{[2-(4-Chloro-phenyl)-4,5,6,7-tetrahydro-2H-indazol-3-yl]-cyclohexyl-methoxymethyl}-benzoic acid], the IC50 was 510 nM.
In the case of `Cc1cc(C(=O)O)cc(C)c1OCC(c1c2ccccc2nn1-c1ccc(Cl)cc1)C1CCCCC1` (racemic) [Example 29, [rac]-4-{2-[2-(4-Chloro-phenyl)-2H-indazol-3-yl]-2-cyclohexyl-ethoxy}-3,5-dimethyl-benzoic acid], the IC50 is reported as 26 nM.
Work on `Fc1cc(-c2nnn[nH]2)ccc1OCC(c1c2ccccc2nn1-c1ccc(Cl)cc1)C1CCCCC1` (racemic) [Example 31, [rac]-2-(4-Chloro-phenyl)-3-{1-cyclohexyl-2-[2-fluoro-4-(2H-tetrazol-5-yl)-phenoxy]-ethyl}-2H-indazole] yielded an IC50 of 100 nM.
Work on `O=C(O)c1ccc(NC(=O)C(c2c3cc(F)c(F)cc3nn2-c2ccc(Cl)cc2)C2CCCCC2)c(F)c1` (racemic) [Example 32, [rac]-4-{2-[2-(4-Chloro-phenyl)-5,6-difluoro-2H-indazol-3-yl]-2-cyclohexyl-acetylamino}-3-fluoro-benzoic acid] yielded an IC50 of 1700 nM.
Compound `Cc1cc(C(=O)O)cc(C)c1OC(c1c2cc(F)c(F)cc2nn1-c1ccc(Cl)cc1)C1CCCCC1` (racemic) [Example 34, [rac]-4-{[2-(4-Chloro-phenyl)-5,6-difluoro-2H-indazol-3-yl]-cyclohexyl-methoxy}-3,5-dimethyl-benzoic acid] has an IC50 of 2130 nM.
Work on `N#Cc1ccc(OC(c2c3cc(F)c(F)cc3nn2-c2ccc(Cl)cc2)C2CCCCC2)c(F)c1` (racemic) [Example 35, [rac]-4-{[2-(4-Chloro-phenyl)-5,6-difluoro-2H-indazol-3-yl]-cyclohexyl-methoxy}-3-fluoro-benzonitrile] yielded an IC50 of 870 nM.
`Fc1cc2nn(-c3ccc(Cl)cc3)c(C(COc3ccc(-c4nnn[nH]4)cc3F)C3CCCCC3)c2cc1F` (racemic) [Example 36, [rac]-2-(4-Chloro-phenyl)-3-{1-cyclohexyl-2-[2-fluoro-4-(2H-tetrazol-5-yl)-phenoxy]-ethyl}-5,6-difluoro-2H-indazole] gave an IC50 of 400 nM.
In the case of `N#Cc1ccc(OCC(c2c3c(nn2-c2ccc(Cl)cc2)CCCC3)C2CCCCC2)c(F)c1` (racemic) [Example 37, [rac]-4-{2-[2-(4-Chloro-phenyl)-4,5,6,7-tetrahydro-2H-indazol-3-yl]-2-cyclohexyl-ethoxy}-3-fluoro-benzonitrile], the IC50 is reported as 3480 nM.
Work on `Fc1cc(-c2nnn[nH]2)ccc1OCC(c1c2c(nn1-c1ccc(Cl)cc1)CCCC2)C1CCCCC1` (racemic) [Example 38, [rac]-2-(4-Chloro-phenyl)-3-{1-cyclohexyl-2-[2-fluoro-4-(1H-tetrazol-5-yl)-phenoxy]-ethyl}-4,5,6,7-tetrahydro-2H-indazole] yielded an IC50 of 109 nM.
For `Cc1cc(C(=O)O)cc(C)c1OCC(c1c2c(nn1-c1ccc(Cl)cc1)CCCC2)C1CCCCC1` (racemic) [Example 40, [rac]-4-{2-[2-(4-Chloro-phenyl)-4,5,6,7-tetrahydro-2H-indazol-3-yl]-2-cyclohexyl-ethoxy}-3,5-dimethyl-benzoic acid], the IC50 was 360 nM.
Compound `N#Cc1ccc(COC(c2c3cc(F)c(F)cc3nn2-c2ccc(Cl)cc2)C2CCCCC2)c(F)c1` (racemic) [Example 41, [rac]-4-{[2-(4-Chloro-phenyl)-5,6-difluoro-2H-indazol-3-yl]-cyclohexyl-methoxymethyl}-3-fluoro-benzonitrile] has an IC50 of 7130 nM.
`Fc1cc2nn(-c3ccc(Cl)cc3)c(C(OCc3ccc(-c4nnn[nH]4)cc3F)C3CCCCC3)c2cc1F` (racemic) [Example 42, [rac]-2-(4-Chloro-phenyl)-3-{cyclohexyl-[2-fluoro-4-(2H-tetrazol-5-yl)-benzyloxy]-methyl}-5,6-difluoro-2H-indazole] showed an IC50 of 14 nM.
For `Cc1cc(C(=O)O)cc(C)c1OCC(c1c2cc(F)c(F)cc2nn1-c1ccc(Cl)cc1)C1CCCCC1` (racemic) [Example 43, [rac]-4-{2-[2-[4-Chloro-phenyl]-5,6-difluoro-2H-indazol-3-yl]-2-cyclohexyl-ethoxy}-3,5-dimethyl-benzoic acid], the IC50 was 29 nM.
Compound `N#Cc1ccc(COC(c2c3c(nn2-c2ccc(Cl)cc2)CCCC3)C2CCCCC2)cc1` (racemic) [Example 44, [rac]-4-{[2-(4-Chloro-phenyl)-4,5,6,7-tetrahydro-2H-indazol-3-yl]-cyclohexyl-methoxymethyl}-benzonitrile] has an IC50 of 5620 nM.
Work on `Clc1ccc(-n2nc3ccccc3c2C(OCc2ccc(-c3nnn[nH]3)cc2)C2CCCCC2)cc1` (racemic) [Example 47, [rac]-2-(4-Chloro-phenyl)-3-{cyclohexyl-[4-(2H-tetrazol-5-yl)-benzyloxy]-methyl}-2H-indazole] yielded an IC50 of 2 nM.
Compound `Fc1cc2nn(-c3ccc(Cl)cc3)c(C(OCc3ccc(-c4nnn[nH]4)cc3)C3CCCCC3)c2cc1F` (racemic) [Example 49, [rac]-2-(4-Chloro-phenyl)-3-{cyclohexyl-[4-(2H-tetrazol-5-yl)-benzyloxy]-methyl}-5,6-difluoro-2H-indazole] has an IC50 of 4 nM.
For `Fc1cc2nn(-c3ccc(Cl)cc3)c(C(Oc3ccc(-c4nnn[nH]4)cc3F)C3CCCCC3)c2cc1F` (racemic) [Example 50, [rac]-2-(4-Chloro-phenyl)-3-{cyclohexyl-[2-fluoro-4-(1H-tetrazol-5-yl)-phenoxy]-methyl}-5,6-difluoro-2H-indazole], the IC50 was 58 nM.
In the case of `Cc1cc(-c2nnn[nH]2)cc(C)c1OCC(c1c2ccccc2nn1-c1ccc(Cl)cc1)C1CCCCC1` (racemic) [Example 52, [rac]-2-(4-Chloro-phenyl)-3-{1-cyclohexyl-2-[2,6-dimethyl-4-(2H-tetrazol-5-yl)-phenoxy]-ethyl}-2H-indazole], the IC50 is reported as 4 nM.
